Tested on: volar forearm of panellists with dry skin
Test: Skin Moisturization (Hydration), Corneometer CM 825
Assay type: in vivo
Conditions: 15% active, baseline 46.75
Description: Skin Moisturization (Hydration). Aqueous solutions (along with formulated lotions) were applied to the volar forearm of panellists with dry skin. Solutions tested contained between 2.5 and 15% active levels of Hydroxyalkylurea and various moisturizing agents. The various individual moisturizing agents were also used in combination with Hydroxyalkylurea and the relative moisture contents in the skin were compared. Moisture levels were measured using a Corneometer® CM 825 (available from CK Industries) prior to and at various time intervals after application of forty microliters of each sample (Temperature ˜21° C., Relative Humidity ˜35%).

Compound: NC(=O)NCCO [HAU, N-2-hydroxyethylurea]
- Relative Skin Moisture Content (5 min after application): 56.56
- Relative Skin Moisture Content (30 min after application): 60.00
- Relative Skin Moisture Content (1 hr after application): 62.95
- Relative Skin Moisture Content (2 hr after application): 62.00

From patent US7816310B2, “Increased moisturization efficacy using hydroxyalkylurea and ammonium lactate” (Akzo Nobel N.V., priority 2003, dated 2010)
